Reference: patent US20140296174A1, “SILK-BASED MULTIFUNCTIONAL BIOMEDICAL PLATFORM” (TUFTS UNIVERSITY, priority 2011, published 2014)

How the values were obtained:
[1] = silk microspheres, depending on processing pH; cited from earlier work
[2] = Doxorubicin storage stability in silk films/MPAs versus solution (fluorescence); type: physicochemical; conditions: 3 weeks at −20° C. and 60° C.; excitation 430, emission 550
Description: Silk films for degradation and stability studies were prepared by casting of 6% (w/v) silk solution containing 1.0 mg/mL doxorubicin on a patterned mold. After drying at ambient conditions for 48 hours the samples were removed and vapor annealed for 24 hours as previously described (Jin et al., 2005).
After 3 weeks, the silk films were degraded with 10 mg/mL proteinase k for 6 hours, and doxorubicin concentration for all samples was determined by comparing fluorescence to a standard curve of known concentrations (excitation=430, emission=550).
The silk DxR-MPA was evaluated at different time points for optical performance and drug content eluted by measuring absorbance at 495 nm and comparing measured values to a standard curve (FIGS. 11A & 33). […] The doxorubicin-loaded silk-MPAs were stored at −20° C.

[3] = Binding of doxorubicin to silk carrier; type: physicochemical; conditions: typically
Excerpt: In addition to having properties which make silk well suited to drug delivery in general, silk is uniquely suited to deliver doxorubicin, as we have observed that doxorubicin interacts strongly with the silk. […] The interaction between the silk and the doxorubicin also results in a large fraction (typically more than 50%) of the total doxorubicin dose is bound to the carrier. In some embodiments, therefore, the carrier may be proteolytically degraded to enhance release the bound doxorubicin. This provide an opportunity to design protease-triggered drug release systems. […] Degradation-mediated drug release from silk biomaterials can be used to design systems that provide drug locally proportionately to disease progression: aggressive disease/increased proteolysis would degrade the silk carrier more rapidly, releasing larger doses of drug than in healthy tissue.

SMILES	fraction released [1]	doxorubicin fluorescence after storage [2]	fraction of the total doxorubicin dose bound to the carrier [3]
CN(C)c1ccc(C(=C2C=CC(=[N+](C)C)C=C2)c2ccc(N(C)C)cc2)cc1 [crystal violet]	25-60%		
COc1cccc2c1C(=O)c1c(O)c3c(c(O)c1C2=O)C[C@@](O)(C(=O)CO)C[C@@H]3O[C@H]1C[C@H](N)[C@H](O)[C@H](C)O1 [doxorubicin]		decreases	more than 50%
